According to article PMC11247627, “Evaluation of Antibacterial Functionalized Dihydropyrimidine Photoaffinity Probes Toward Mechanism of Action Studies” (ACS Medicinal Chemistry Letters, 2024):
≈ marks a conversion by molar mass, not a printed value. Where “and” joins values, the source holds several entries; their conditions need not be identical. Equal values may be shown once. Entries after “also recorded” stand apart in the source; their conditions may differ.

Columns and labels:
[1] = test system: Staphylococcus aureus ATCC 43300 (MRSA); test: Antibacterial broth microdilution assay (MIC), MRSA ATCC 43300; format: cell-based; settings: amount inhibiting >95% of growth (A600), 18 h, suffix 'I' = partial growth inhibition at the value, >95% at higher concentrations; for MIC: Staphylococcus aureus, read-out: MIC ATCC 43300
Procedure: (§1) These 24 DHP analogues were then screened for inhibition of Staphylococcus aureus growth using microdilution assays. Growth inhibition was examined in methicillin-sensitive S. aureus (ATCC 12600) and two strains of MRSA (ATCC 33591 and ATCC 43300). Antibiotic controls were included in the screen, including carbenicillin, erythromycin, gentamycin, trimethoprim, and vancomycin, and minimum inhibitory concentrations (MICs) were determined for each compound, which were defined as the concentration required to inhibit >95% of bacterial growth (Table 1).
(§2) Antibacterial Microdilution Assay (MIC Determination)
(§3) 1240 The MIC determination assays were performed in a BSL-2 laboratory with appropriate security and biosafety measures. The MICs were determined using a broth microdilution assay closely following the guidelines of the Clinical and Laboratories Standards Institute (CLSI). MICs were determined in duplicate for two biological replicates using 2-fold serial dilutions of test compounds or commercial antibiotics in cation-adjusted Mueller-Hinton broth. The central 60 wells of 96-well plates were 1245 prepared with the compound of interest at the indicated concentration, where 2 µL of the compound in DMSO were added prior to the addition of the culture. Overnight cultures of the different Staphylococcus aureus strains were diluted to provide an initial inoculum of approximately 5 X 10 5 CFU/mL that was delivered to each well in 198 µL of culture (final DMSO concentration of ~1%). Initial inoculum concentrations were verified by plating to count CFU/mL. Each plate was equipped with 1250 experimental controls for full growth (6 wells) and full growth inhibition (6 wells), and all control wells were in the presence of 1% DMSO. The outer 36 wells were filled with 200 µL of culture each to prevent growth effects on the interior 60 wells. The plates were incubated at 37 °C for 18 hours, at which time they were removed from the incubator and were allowed to equilibrate to room temperature for 30 minutes. Absorbance of each well at 600 nm was then read using a microplate reader to 1255 determine the MIC, and visual confirmation of growth inhibition was also performed. If variation was seen in the experimental values, the highest value of two independent trials was listed.

Staphylococcus aureus = test: S. aureus growth inhibition (all three strains or strain not specified); format: cell-based; settings: for MIC: Staphylococcus aureus, all three S. aureus strains or strain not specified, read-out: concentration inhibiting S. aureus growth (MIC); for antibacterial activity (in words): S. aureus growth
Procedure: as §1, §2, §3

[2] = test system: Staphylococcus aureus ATCC 33591 (MRSA); test: Antibacterial broth microdilution assay (MIC), MRSA ATCC 33591; format: cell-based; settings: Staphylococcus aureus; amount inhibiting >95% of growth (A600), 18 h; suffix 'I' = partial growth inhibition at the value, >95% at higher concentrations; read-out: MIC ATCC 33591
Procedure: as §1, §2, §3

[3] = test system: Staphylococcus aureus ATCC 12600; test: Antibacterial broth microdilution assay (MIC), methicillin-sensitive S. aureus ATCC 12600; format: cell-based; settings: Staphylococcus aureus, ATCC12600; amount inhibiting >95% of growth (A600), 18 h; suffix 'I' = partial growth inhibition at the value, >95% at higher concentrations; read-out: MIC ATCC 12600
Procedure: as §1, §2, §3

[4] = MTT cytotoxicity assay, HEK293 viability; format: cell-based; settings: human, HEK293 cells, 24 h treatment
Procedure: After determining that some of our compounds were quite potent for the inhibition of bacterial growth, we next turned toward assessing broader cytotoxicity trends. […] Further, our previously reported derivatives were also screened for red blood cell (RBC) hemolysis, and the assay indicated a lack of RBC lysis at the highest concentrations tested for all compounds (64 μg/mL).[6] […] This indicates it may have secondary mechanisms of cytotoxicity via nonspecific membrane rupturing activity, albeit, at a much higher concentration than its 2 μg/mL MIC. Next, we examined the compounds’ ability to decrease the viability of an immortalized mammalian cell line (HEK293) using a colorimetric MTT assay.[34] To our surprise, all of the compounds screened produced relatively potent cytotoxicity against this cell line. […] We screened a dihydropyrimidine where the guanidine was substituted with a urea (traditional Biginelli reaction derived), and this compound had no bacterial inhibition but continued to have significant mammalian cytotoxicity, further decoupling the antibacterial activity from mammalian cytotoxicity in these cases. Future studies involving the photoaffinity probes will examine the mechanism by which our compounds exert their growth-inhibiting effects in both bacterial and mammalian cells.
Mammalian cytotoxicity was evaluated using a commercially available MTT Cell proliferation assay 1275 (ATCC 30-1010K; Manassas, VA) following the included protocol. Briefly, Human Embryonic Kidney 293 (HEK-293; ATCC CRL-1353) cells were seeded onto 96 well plates (Nunclon Delta; ThermoFisher 167008; Waltham, MA) coated with Poly-D-Lysine (Thermofisher A3890401) at a density of […] cells per well in 80 µL of Eagle's Minimum Essential Medium (EMEM; ATCC 30-2003) with 10% Fetal Bovine Serum (ATCC 30-2021). Cells were incubated at 37 °C in a 5% CO2 atmosphere and allowed to 1280 adhere overnight, and then treated for 24 h with 20 µL of drugs dissolved in PBS with 0.5% DMSO, at concentrations ranging from 1×10^-4 M to 1×10^-9 M. Following treatment, 10 µL of MTT reagent was added to each well and allowed to incubate at 37 °C for 4 h. Then, 100 μL of detergent reagent was added to all wells, and they were stored at room temperature in the dark for 2 h. Absorbance was then read using a multi-mode spectrophotometer (Spectramax i3X; San Jose, CA) at a wavelength of 570 1285 nm. Raw values were normalized to a 0-100% scale using the maximum and minimum responses. To generate dose-response curves and IC50 values, normalized data were plotted against the log of the drug concentrations and fit to nonlinear curve [log(inhibitor) vs. response – variable slope (four parameters)] using GraphPad Prism version 7.05 (GraphPad Software; San Diego, CA).

[5] = test system: red blood cells (defibrinated sheep blood); test: Hemolysis assay (red blood cell lysis); format: cell-based; settings: concentration producing >20% hemolysis of red blood cells, 1 h, 37 C
Procedure: (§4) 1260 1.5 mL of mechanically defibrinated sheep blood (Hemostat Labs: DSB100) was placed in a microcentrifuge tube and was centrifuged at 10,000 rpm for ten minutes. Following the removal of the supernatant, the cells were resuspended in 1 mL of phosphate-buffered saline (PBS). This process was repeated two more times. The final suspension was diluted ten-fold with PBS and was aliquoted into microcentrifuge tubes containing the compounds which were previously serial diluted in PBS. TritonX 1265 (1% by volume) served as a positive control, while sterile PBS served as a negative control. All samples were incubated at 37 °C and shaken at 200 rpm for 1 hour. After the 1 hour, the samples were centrifuged at 10,000 rpm for 5 minutes and the absorbance of the supernatant was measured via UV spectroscopy at a 540 nm wavelength.

[6] = molecular target: T1, recombinant Staphylococcus aureus DHFR (SaDHFR) (Staphylococcus aureus, UniProt P0A017); test: Inhibition of recombinant S. aureus DHFR; format: biochemical; settings: in vitro
T1 construct: made in house
Procedure: To explore this, oxidization of DHP 7a to the pyrimidine 8a was performed using phenyliodine diacetate (PIDA) (Figure 3a),[12]−[14] as this oxidation state mimics FDA approved antimicrobial DHFR inhibitors trimethoprim 1 (Figure 1a) and pyrimethamine 9 (Figure 3b).

[7] = Hemolysis assay (red blood cell lysis); format: cell-based, sheep; settings: sheep, washed red blood cells from defibrinated sheep blood; 64 μg/mL; read-out: hemolysis (RBC lysis) at 64 μg/mL
Procedure: as §4

MRSA = test system: MRSA; parameters: method as in PMID 18931753, PMID 16883415; settings: cited from earlier work
[8] = test system: dihydrofolate reductase (DHFR); parameters: method as in PMID 18931753; settings: cited from earlier work
mammalian toxicity = test system: mammalian toxicity; parameters: method as in PMID 18931753; settings: cited from earlier work

T1 sequence (P0A017 whole entry): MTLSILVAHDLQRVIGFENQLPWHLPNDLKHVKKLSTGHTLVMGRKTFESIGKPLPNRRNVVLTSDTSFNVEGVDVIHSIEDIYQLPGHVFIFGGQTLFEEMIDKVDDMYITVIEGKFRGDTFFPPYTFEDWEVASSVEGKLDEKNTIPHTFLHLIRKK

## CCOC(=O)C1=C(c2ccccc2)NC(N)=NC1c1ccccc1 (stereo not shown) [compound 6]
[1]
  MIC: > 64 mg/L
  MIC ATCC 43300: >64 mg/L
Staphylococcus aureus
  MIC: > 64 mg/L
[2]
  MIC: > 64 mg/L
[3]
  MIC: > 64 mg/L
[4]
  IC50 at 24 h: 18 µM and 5.8 µg/mL
[5]
  lysis20: >64 µg/mL

## CCOC(=O)C1=C(c2ccccc2)NC(N)=NC1c1ccc(OC)cc1 (stereo not shown) [6u]
[1]
  MIC: > 64 mg/L
Staphylococcus aureus
  MIC: > 64 mg/L
[2]
  MIC: > 64 mg/L
[4]
  IC50 at 24 h: 14 µM and 4.5 µg/mL
[5]
  lysis20: >64 µg/mL

## CCOC(=O)C1=C(c2cccc(C(F)(F)F)c2)NC(N)=NC1c1cc(Cl)cc(Cl)c1 (stereo not shown) [7e]
[1]
  MIC: 4 mg/L (≈ 8.73 µM)
[2]
  MIC: 4 mg/L (≈ 8.73 µM)
[3]
  MIC: 4 mg/L (≈ 8.73 µM)
[4]
  IC50 at 24 h: 9.9 µM and 3.2 µg/mL
[5]
  lysis20: >64 µg/mL

## CCOC(=O)C1=C(c2ccccc2)NC(N)=NC1c1ccc(-c2ccccc2)cc1 (stereo not shown) [7b]
[1]
  MIC: 4 mg/L (≈ 10.1 µM)
Staphylococcus aureus
  MIC: 4 mg/L (≈ 10.1 µM)
[2]
  MIC: 4 mg/L (≈ 10.1 µM)
[3]
  MIC: 4 mg/L (≈ 10.1 µM)
[4]
  IC50 at 24 h: 9.4 µM and 3 µg/mL
[5]
  lysis20: >64 µg/mL

## CCOC(=O)c1c(C)nc(N)nc1-c1cc(Cl)cc(Cl)c1 [compound 10]
Staphylococcus aureus
  antibacterial activity (in words): lost all antibacterial activity; also recorded: lacked antibacterial activity
[6]
  DHFR inhibition (in words): lacked antibacterial activity and DHFR inhibition

## CCOC(=O)C1=C(c2cccc(F)c2)NC(N)=NC1c1ccc(CC(C)C)cc1 (stereo not shown) [7h]
[1]
  MIC: 4 mg/L (≈ 10.1 µM)
[2]
  MIC: 4 mg/L (≈ 10.1 µM)
[3]
  MIC: 4 mg/L (≈ 10.1 µM)
[4]
  IC50 at 24 h: 4.4 µM and 1.4 µg/mL
[5]
  lysis20: >64 µg/mL

## CCOC(=O)C1=C(c2cccc(C(F)(F)F)c2)NC(N)=NC1c1ccc(CC(C)C)cc1 (stereo not shown) [7f]
[1]
  MIC: 2 mg/L (≈ 4.49 µM)
Staphylococcus aureus
  MIC: 2 mg/L (≈ 4.49 µM)
[2]
  MIC: 2 mg/L (≈ 4.49 µM)
[3]
  MIC: 2 mg/L (≈ 4.49 µM)
[4]
  IC50 at 24 h: 1.9 µM and 0.61 µg/mL
[5]
  lysis20: 64 µg/mL
[7]
  hemolysis at 1 h, 64 μg/mL: > 20%

## CCOC(=O)C1=C(c2ccccc2)NC(N)=NC1c1ccccc1OC (stereo not shown) [6s]
[1]
  MIC: > 64 mg/L
  MIC ATCC 43300: >64 mg/L
[2]
  MIC: > 64 mg/L
[3]
  MIC: > 64 mg/L
[4]
  IC50 at 24 h: 87 µM and 28 µg/mL
[5]
  lysis20: >64 µg/mL

## CCOC(=O)c1c(-c2ccccc2)nc(N)nc1-c1ccc(CC(C)C)cc1 [8a]
Staphylococcus aureus
  antibacterial activity (in words): lacked antibacterial activity
  MIC: > 64 mg/L
[6]
  DHFR inhibition (in words): no inhibition was observed; also recorded: lacked antibacterial activity and DHFR inhibition

## CCOC(=O)C1=C(CC)NC(N)=NC1c1cc(Cl)cc(Cl)c1O (stereo not shown) [compound 2, Emmacin]
MRSA
  MRSA growth inhibition (in words): found to inhibit MRSA growth
[8]
  DHFR inhibition (in words): previously reported to inhibit DHFR
Mammalian toxicity
  mammalian toxicity (in words): lack mammalian toxicity

## CCOC(=O)C1=C(c2ccccc2)NC(N)=NC1c1cccc(Cl)c1 (stereo not shown) [6i]
[1]
  MIC: 32 mg/L (≈ 89.9 µM)
[2]
  MIC: 32 mg/L (≈ 89.9 µM)
[3]
  MIC: 32 mg/L (≈ 89.9 µM)
[4]
  IC50 at 24 h: 18 µM and 5.8 µg/mL
[5]
  lysis20: >64 µg/mL

## CCOC(=O)C1=C(c2cccc(F)c2)NC(N)=NC1c1cc(Cl)cc(Cl)c1 (stereo not shown) [7g]
[1]
  MIC: 8 mg/L (≈ 19.6 µM)
[2]
  MIC: 8 mg/L (≈ 19.6 µM)
[3]
  MIC: 8 mg/L (≈ 19.6 µM)
[4]
  IC50 at 24 h: 14 µM and 4.5 µg/mL
[5]
  lysis20: >64 µg/mL

## CCOC(=O)C1=C(c2ccccc2)NC(N)=NC1c1ccc(CC(C)C)cc1 (stereo not shown) [7a]
[1]
  MIC: 4 mg/L (≈ 10.6 µM)
Staphylococcus aureus
  MIC: 4 mg/L (≈ 10.6 µM)
[3]
  MIC: 4 mg/L (≈ 10.6 µM)
[4]
  IC50 at 24 h: 7.9 µM and 2.5 µg/mL
[5]
  lysis20: >64 µg/mL

## CCOC(=O)C1=C(c2cccc(C)c2)NC(N)=NC1c1cc(Cl)cc(Cl)c1 (stereo not shown) [7i]
[1]
  MIC: 8 mg/L (≈ 19.8 µM)
[2]
  MIC: 8 mg/L (≈ 19.8 µM)
[3]
  MIC: 8 mg/L (≈ 19.8 µM)
[4]
  IC50 at 24 h: 16 µM and 5.1 µg/mL
[5]
  lysis20: >64 µg/mL

## CCOC(=O)C1=C(c2ccccc2)NC(N)=NC1c1ccc(C(C)C)cc1 (stereo not shown) [6r]
[1]
  MIC: 8 mg/L (≈ 22 µM)
Staphylococcus aureus
  MIC: 8 mg/L (≈ 22 µM)
[4]
  IC50 at 24 h: 9.5 µM and 3.1 µg/mL
[5]
  lysis20: >64 µg/mL
